Read-outs that look alike come from different tables or passages of the source.
Key:
[1] = Cytotoxicity against mammalian cells (MTT); type: cell-based, murine; conditions: mouse, NCTC clone 929 fibroblast cells; NCTC clone 929 cells, 48 h, 200–1.56 μM, MTT
Description: (§1) Macrophages were collected from the peritoneal cavity of BALB/c mice by washing them with RPMI-1640 medium supplemented with 10% fetal calf serum and were maintained at 37 °C in a 5% CO2 humidified incubator. Trypomastigotes of T. cruzi (Y strain) were maintained in Rhesus monkey kidney cells (LLC-MK2, ATCC CCL 7) and cultivated in RPMI-1640 medium supplemented with 2% fetal calf serum at 37 °C in a 5% CO2 humidified incubator. Murine conjunctive cells (NCTC clone 929, ATCC) were maintained in RPMI-1640 supplemented with 10% FBS at 37 °C in a 5% CO2 humidified incubator.[20] […] The selectivity index (SI) was determined as CC50/IC50 against amastigotes. IC50 and CC50 values were calculated using a sigmoid dose–response curve in GraphPad Prism 6.0 software (GraphPad Software, San Diego, CA, USA). The assays were repeated at least twice, and the samples were tested in duplicate.

[2] = tested on: T. cruzi (Y strain) trypomastigotes; assay: Antitrypomastigote assay (resazurin viability); type: cell-based; conditions: Trypanosoma cruzi, LLC-MK2-derived trypomastigotes, 24 h incubation, up to 100 μM, read-out: IC50 (μM) ± SD trypomastigote
Description: Our attention next turned to an evaluation of the activity of the various natural product analogues against T. cruzi amastigotes (evaluated microscopically using an ex vivo intracellular model with mice macrophages)[20] and trypomastigotes (resazurin in vitro assay).[30] […] Macrophages were collected from the peritoneal cavity of BALB/c mice by washing them with RPMI-1640 medium supplemented with 10% fetal calf serum and were maintained at 37 °C in a 5% CO2 humidified incubator. Trypomastigotes of T. cruzi (Y strain) were maintained in Rhesus monkey kidney cells (LLC-MK2, ATCC CCL 7) and cultivated in RPMI-1640 medium supplemented with 2% fetal calf serum at 37 °C in a 5% CO2 humidified incubator. Murine conjunctive cells (NCTC clone 929, ATCC) were maintained in RPMI-1640 supplemented with 10% FBS at 37 °C in a 5% CO2 humidified incubator.[20] LLC-MK2-derived trypomastigotes were seeded (1 × 10^6 cells/well) in 96-well plates and incubated with the compounds serially diluted 2-fold (up to 100 μM) for 24 h in RPMI 1640 medium at 37 °C in a 5% CO2 humidified incubator. Subsequently, resazurin (0.011% in PBS) was added for 24 h to check the parasite viability.[30] The optical density was determined in the FilterMax F5 (Molecular Devices) at 570 nm. Benznidazole was used as the standard. IC50 and CC50 values were calculated using a sigmoid dose–response curve in GraphPad Prism 6.0 software (GraphPad Software, San Diego, CA, USA). The assays were repeated at least twice, and the samples were tested in duplicate.

[3] = tested on: Fibroblast NCTC cells (clone 929); assay: Cytotoxicity against mammalian cells (MTT); type: cell-based, murine; conditions: for SI (selectivity index): ratio between CC50 in NCTC cells and IC50 in intracellular amastigotes; for CC50 (μM) ± SD: NCTC clone 929 cells, 48 h, 200–1.56 μM, MTT
Description: as §1

T. cruzi amastigotes [4] = assay: Antiamastigote assay (intracellular, infected peritoneal macrophages, infection index by microscopy); type: cell-based, Trypanosoma cruzi; conditions: for IC50: Trypanosoma cruzi, Peritoneal macrophage, in Mus musculus, intracellular amastigotes in BALB/c peritoneal macrophages, 48 h, 30–0.23 μM, read-out: IC50 (μM) ± SD amastigote
Description: Our attention next turned to an evaluation of the activity of the various natural product analogues against T. cruzi amastigotes (evaluated microscopically using an ex vivo intracellular model with mice macrophages)[20] and trypomastigotes (resazurin in vitro assay).[30] […] Macrophages were collected from the peritoneal cavity of BALB/c mice by washing them with RPMI-1640 medium supplemented with 10% fetal calf serum and were maintained at 37 °C in a 5% CO2 humidified incubator. Trypomastigotes of T. cruzi (Y strain) were maintained in Rhesus monkey kidney cells (LLC-MK2, ATCC CCL 7) and cultivated in RPMI-1640 medium supplemented with 2% fetal calf serum at 37 °C in a 5% CO2 humidified incubator. Murine conjunctive cells (NCTC clone 929, ATCC) were maintained in RPMI-1640 supplemented with 10% FBS at 37 °C in a 5% CO2 humidified incubator.[20] Peritoneal macrophages (1 × 10^5 cells/well), collected from the peritoneal cavity of the BALB/c mice, were seeded in 16-well chamber slides (NUNC, Thermo Fisher Scientific) and infected with trypomastigotes (10:1, parasite/macrophage ratio). After 2 h, the compounds (in concentrations of 30–0.23 μM) were incubated with infected macrophages for 48 h at 37 °C in a 5% CO2 humidified incubator. The slides were fixed with MeOH, stained with Giemsa, and observed under a light microscope (EVOS M5000, Termo, USA) with digital image equipment. […] IC50 and CC50 values were calculated using a sigmoid dose–response curve in GraphPad Prism 6.0 software (GraphPad Software, San Diego, CA, USA). The assays were repeated at least twice, and the samples were tested in duplicate.

T. cruzi amastigotes [5] = conditions: T. cruzi intracellular amastigotes; read-out: IC50 (μM) ± SD amastigote; cited from earlier work
[6] = tested on: Fibroblast NCTC cells (clone 929); conditions: cited from earlier work

Compound	IC50 [2] [µM]	IC50 (T. cruzi amastigotes [4]) [µM]	CC50 at 48 h [1] [µM]	SI (selectivity index) [3]	CC50 (μM) ± SD [3]	IC50 (T. cruzi amastigotes [5]) [µM]	CC50 ([6]; NCTC cells) [µM]	SI (selectivity index) ([6]; ratio between CC50 in NCTC cells and IC50 in intracellular amastigotes)	fold more potent than the natural product 1 against the amastigotes (T. cruzi amastigotes [4]; relative to compound 1, amastigote IC50)
C=CCc1cc(OC)c(OC)c(Oc2ccccc2OC)c1 [Compound 16]	20.3 ± 0.4		> 200						
C=CCc1ccc(Oc2cccc(OC)c2OC)c(OC)c1 [Compound 20]	63.1 ± 6.2	25.7 ± 12.2	> 200	>7.8					
C=CCc1cc(OC)c(O)c(Oc2ccc(CCC)cc2OC)c1 [Compound 13]	7.6 ± 1.9	16.6 ± 1	42 ± 3.8	2.5	significant mammalian toxicity				
C=CCc1cc(OC)c(OCc2ccc(OC)cc2)c(Oc2ccccc2OC)c1 [Compound 17]			> 200						
CCCc1ccc(Oc2cc(CCC)cc(OC)c2OC)c(OC)c1 [Compound 9]						13.3 ± 1.2	> 200	>15.0	
O=C(Cn1ccnc1[N+](=O)[O-])NCc1ccccc1 [benznidazole, reference compound]	17.7 ± 1.9	5 ± 1.5	191 ± 13.4	38.1					
C=CCc1ccc(Oc2cc(CC=C)cc(OC)c2O)cc1 [Compound 15, 3-methylobovatol]	4.6 ± 3	22.5 ± 18.8	123 ± 9.4	5.5					
C=CCc1ccc(O)c(Oc2ccc(CC=C)cc2OC)c1 [Compound 23]	2.5 ± 1.3	7.7 ± 1.3	129 ± 5.2	16.7					
C=CCc1ccc(Oc2cccc(OC)c2OCc2ccc(OC)cc2)c(OC)c1 [Compound 21]			> 200						
C=CCc1cc(OC)cc(Oc2ccc(CC=C)cc2OC)c1 [Compound 25]		10.9 ± 6.5	> 200	>18.3					
C=CCOc1c(OC)cccc1Oc1ccc(CC=C)cc1OC [Compound 22]			> 200						

Further lines, with some results ahead:

IC50 [2] [µM]	IC50 (T. cruzi amastigotes [4]) [µM]	Compound	CC50 at 48 h [1] [µM]	SI (selectivity index) [3]	CC50 (μM) ± SD [3]	IC50 (T. cruzi amastigotes [5]) [µM]	CC50 ([6]; NCTC cells) [µM]	SI (selectivity index) ([6]; ratio between CC50 in NCTC cells and IC50 in intracellular amastigotes)	fold more potent than the natural product 1 against the amastigotes (T. cruzi amastigotes [4]; relative to compound 1, amastigote IC50)
6.5 ± 4.9	24.4 ± 10.3	C=CCc1ccc(Oc2cc(CC=C)cc(OC)c2OCOC)c(OC)c1 [Compound 5]	> 200	>8.2					
	8.6 ± 2.1	C=CCc1cc(OC)c(OCc2ccc(OC)cc2)c(Oc2ccc(CCC)cc2OC)c1 [Compound 12]	> 200	>23.3					
	5.5 ± 3.5	CCCc1ccc(Oc2cc(CCC)cc(OC)c2OCc2ccc(OC)cc2)c(OC)c1 [Compound 10]	> 200	>36.4					
	13.4 ± 5.4	C=CCc1ccc(Oc2cc(CCC)cc(OC)c2OCc2ccc(OC)cc2)c(OC)c1 [Compound 18]	> 200	>14.9					
	11.6 ± 8.4	C=CCc1ccc(Oc2cc(CC=C)ccc2OCc2ccc(OC)cc2)c(OC)c1 [Compound 24]	> 200	>17.2					
21.9 ± 6.1	11.7 ± 7	C=CCc1cc(OC)c(OC)c(Oc2ccc(CCC)cc2OC)c1 [Compound 11]	> 200	>17.1					
4.6 ± 3.8	10.5 ± 8.3	C=CCc1ccc(Oc2cc(CCC)cc(OC)c2O)c(OC)c1 [Compound 19]	14.2 ± 0.1	1.3	significant mammalian toxicity				
	4 ± 1.4	C=CCc1ccc(Oc2cc(CC=C)cc(OC)c2OCc2ccc(OC)cc2)c(OC)c1 [Compound 6]	> 200	>50					approximately 20 fold
	11 ± 2.3	C=CCc1ccc(Oc2cc(CC=C)cc(OC)c2OCc2ccc(OC)cc2)cc1 [Compound 14]	> 200	>18.2					

Source: PMC7670487 (ACS Infectious Diseases, 2020)
